Test results as given in patent US20070161592A1, “Method of treating fear” (priority 2005, published 2007).

What was measured:
adult ACC neurons = assay: LTP induced by theta-burst stimulation (TBS) in ACC slices; type: cell-based, mouse; settings: 0.3 μM
Procedure: (§1) Coronal brain slices ([…]) from 6-8-week-old C57BL/6 mice, containing ACC or hippocampus, were prepared using standard methods (Wei et al., 2001). Slices were transferred to a submerged recovery chamber containing oxygenated (95% O2 and 5% CO2) artificial cerebrospinal fluid (ACSF) (in mM: 124 NaCl, 4.4 KCl, 2 CaCl2, 1 MgSO4, 25 NaHCO3, 1 NaH2PO4, 10 glucose) at room temperature for at least 1 h.
Experiments were performed in a recording chamber on the stage of an Axioskop 2FS microscope with infrared DIC optics for visualizing whole-cell patch clamp recordings. EPSCs were recorded from layer II-III neurons using an Axon 200B amplifier (Axon Instruments, CA) and stimulations were delivered using a bipolar tungsten stimulating electrode placed in layer V of the ACC. In hippocampal slices, EPSCs were evoked by stimulating the Schaffer collateral-commissural pathway. EPSCs were induced by repetitive stimulations at 0.02 Hz and neurons were voltage clamped at −70 mV. The recording pipettes (3-5 MΩ) were filled with solution containing (mM) 145 K-gluconate, 5 NaCl, 1 MgCl2, 0.2 EGTA, 10 HEPES, 2 Mg-ATP, and 0.1 Na3-GTP (adjusted to pH 7.2 with KOH). After obtaining stable EPSCs for 10 min, three kinds of LTP induction paradigms were used within 12 min after establishing the whole-cell configuration to prevent wash out effect on LTP induction (Tsvetkov et al., 2002). The first protocol involved paired presynaptic 80 pulses at 2 Hz with postsynaptic depolarization at +30 mV (referred to as pairing training). The second involved paired 3 presynaptic stimuli that caused 3 EPSPs (10 ms ahead) with 3 postsynaptic APs at 30 Hz, paired 15 times every 5 s (named as EPSPs-APs protocol). The third involved theta-burst stimulation (5 trains of burst with 4 pulses at 100 Hz, at 200 ms interval; repeated 4 times at intervals of 10 s; named as TBS). The NMDAR-mediated component of EPSCs was pharmacologically isolated in Mg^2+-free ACSF containing: CNQX (20 μM), glycine (1 μM) and picrotoxin (100 μM). The patch electrodes contained (in mM) 102 cesium gluconate, 5 TEA-chloride, 3.7 NaCl, 11 BAPTA, 0.2 EGTA, 20 HEPES, 2 MgATP, 0.3 NaGTP, and 5 QX-314 chloride (adjusted to pH 7.2 with CsOH). Neurons were voltage clamped at −60 mV and NMDARs-mediated EPSCs were evoked at 0.05 Hz. Picrotoxin (100 μM) was always present to block GABAA receptor-mediated inhibitory synaptic currents. The access resistance was 15-30 MΩ and was monitored throughout the experiment. Data were discarded if access resistance changed by more than 15% during an experiment. Results are expressed as means±SEM. Statistical comparisons were performed using the Student t-test. […]

[1] = test system: NMDAR-mediated currents in the ACC; assay: NMDAR-mediated EPSCs in the ACC; type: cell-based, mouse
Procedure: as §1
Experiments were performed in a recording chamber on the stage of an Axioskop 2FS microscope with infrared DIC optics for visualizing whole-cell patch clamp recordings. EPSCs were recorded from layer II-III neurons using an Axon 200B amplifier (Axon Instruments, CA) and stimulations were delivered using a bipolar tungsten stimulating electrode placed in layer V of the ACC. In hippocampal slices, EPSCs were evoked by stimulating the Schaffer collateral-commissural pathway. EPSCs were induced by repetitive stimulations at 0.02 Hz and neurons were voltage clamped at −70 mV. The recording pipettes (3-5 MΩ) were filled with solution containing (mM) 145 K-gluconate, 5 NaCl, 1 MgCl2, 0.2 EGTA, 10 HEPES, 2 Mg-ATP, and 0.1 Na3-GTP (adjusted to pH 7.2 with KOH). After obtaining stable EPSCs for 10 min, three kinds of LTP induction paradigms were used within 12 min after establishing the whole-cell configuration to prevent wash out effect on LTP induction (Tsvetkov et al., 2002). The first protocol involved paired presynaptic 80 pulses at 2 Hz with postsynaptic depolarization at +30 mV (referred to as pairing training). The second involved paired 3 presynaptic stimuli that caused 3 EPSPs (10 ms ahead) with 3 postsynaptic APs at 30 Hz, paired 15 times every 5 s (named as EPSPs-APs protocol). The third involved theta-burst stimulation (5 trains of burst with 4 pulses at 100 Hz, at 200 ms interval; repeated 4 times at intervals of 10 s; named as TBS). The NMDAR-mediated component of EPSCs was pharmacologically isolated in Mg^2+-free ACSF containing: CNQX (20 μM), glycine (1 μM) and picrotoxin (100 μM). The patch electrodes contained (in mM) 102 cesium gluconate, 5 TEA-chloride, 3.7 NaCl, 11 BAPTA, 0.2 EGTA, 20 HEPES, 2 MgATP, 0.3 NaGTP, and 5 QX-314 chloride (adjusted to pH 7.2 with CsOH). Neurons were voltage clamped at −60 mV and NMDARs-mediated EPSCs were evoked at 0.05 Hz. Picrotoxin (100 μM) was always present to block GABAA receptor-mediated inhibitory synaptic currents. The access resistance was 15-30 MΩ and was monitored throughout the experiment. Data were discarded if access resistance changed by more than 15% during an experiment. Results are expressed as means±SEM. Statistical comparisons were performed using the Student t-test.
One possible mechanism is that NR2B-containing receptors may contribute more to total NMDA currents in ACC synapses than in hippocampal synapses. […] Application of 0.1 μM or 0.4 μM NVP-AAM077 depressed total NMDAR-mediated currents by 59.0±4.3% (n=5) and 63.2±1.7% (n=6) in the ACC respectively (FIG. 5). On the other hand, application of 0.3 μM or 3 μM Ro25-6981 attenuated total NMDAR-mediated currents by 18.0±1.9% (n=5) and 18.1±3.4% (n=7) in the ACC respectively, showing that 0.3 μM Ro25-6981 was sufficient to block the NR2B-mediated currents (FIG. 5). This experiment was repeated in hippocampal CA1 neurons. […] However, unlike in the ACC, application of 0.3 μM Ro25-6981 alone potentiated, rather than blocked, total NMDAR-mediated currents by 51.3±16.4% in the hippocampus (FIG. 5).
The relative percentages of NR2A- and NR2B-mediated currents were determined by applying specific antagonists, NVP-AAM077 (0.4 μM) and Ro25-6981 (0.3 μM). The concentrations used here were based on the results from FIG. 5 and a recent study performed in the hippocampus (Liu et al., 2004). Application of NVP-AAMO77 depressed total NMDAR-mediated currents by 63.2±1.7% and the addition of Ro25-6981 to the same neuron further reduced currents by 13.7±1.4% (n=6) in the ACC (FIG. 6). […]

## C[C@@H](CN1CCC(Cc2ccccc2)CC1)[C@@H](O)c1ccc(O)cc1 [Ro25-6981]
Adult ACC neurons
  LTP after TBS, % of baseline: 105.5±8.3%
Adult ACC neurons; FIG. 4E
  effect on LTP induced by TBS: blocked
[1]; 0.3 μM Ro25-6981 added to the same neuron after 0.4 μM NVP-AAM077
  further reduction of total NMDAR-mediated currents: 13.7±1.4%
[1]; 0.3 μM, applied alone or first
  depression of total NMDAR-mediated currents: 18.0±1.9%
[1]; 3 μM
  depression of total NMDAR-mediated currents: 18.1±3.4%
[1]; bath application of different doses, FIG. 5
  effect on total NMDAR-mediated currents: depressed
